Assay results as given in patent US20210395313A1, “PEPTIDE PAC1 ANTAGONISTS” (AMGEN INC., priority 2017, published 2021).
Where a SMILES comes first, the peptide text is derived from it. Bridges are numbered along the chain shown (N, C = ends). Where no end group is shown, it is not given here.

How the values were obtained:
human PAC1 receptor = molecular target: T1, human PAC1 receptor (Homo sapiens, UniProt P41586); test: LANCE Ultra cAMP accumulation antagonist assay in SHSY-5Y cells; assay type: cell-based;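 note: inhibition of cAMP accumulation evoked by PAC1 agonist at its EC80 in SHSY-5Y cells endogenously expressing receptor, 30 min preincubation then 15 min agonist, TR-FRET readout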
T1 construct: SHSY-5Y (human neuroblastoma cell line) and RG-2 (rat glioma cell line) cells endogenously express human and rat PAC1 receptors, respectively; endogenous in cells; host or cells: SHSY-5Y human neuroblastoma cells
T1 sequence (P41586 21-468): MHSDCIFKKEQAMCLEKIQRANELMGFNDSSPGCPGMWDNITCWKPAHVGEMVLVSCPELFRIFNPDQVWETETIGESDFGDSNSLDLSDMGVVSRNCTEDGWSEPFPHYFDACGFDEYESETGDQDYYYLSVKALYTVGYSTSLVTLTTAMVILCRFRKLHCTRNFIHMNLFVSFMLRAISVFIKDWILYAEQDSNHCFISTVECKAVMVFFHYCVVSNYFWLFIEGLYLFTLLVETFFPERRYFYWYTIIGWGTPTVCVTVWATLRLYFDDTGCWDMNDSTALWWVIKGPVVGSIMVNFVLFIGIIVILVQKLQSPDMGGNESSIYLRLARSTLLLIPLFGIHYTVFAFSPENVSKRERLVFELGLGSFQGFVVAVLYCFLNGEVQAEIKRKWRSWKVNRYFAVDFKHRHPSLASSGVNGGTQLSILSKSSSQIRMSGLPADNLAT

rat PAC1 receptor = molecular target: T2, rat PAC1 receptor (Rattus norvegicus, UniProt P32215); test: LANCE Ultra cAMP accumulation antagonist assay in RG-2 cells; assay type: cell-based;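 note: RG-2 rat glioma cells endogenously expressing PAC1, test peptide preincubated 30 min, then PAC1 agonist added at its EC80 for 15 min, cAMP accumulation read by LANCE Ultra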
T2 construct: SHSY-5Y (human neuroblastoma cell line) and RG-2 (rat glioma cell line) cells endogenously express human and rat PAC1 receptors, respectively; endogenous in cells; host or cells: RG-2 rat glioma cells
T2 sequence (P32215 20-523): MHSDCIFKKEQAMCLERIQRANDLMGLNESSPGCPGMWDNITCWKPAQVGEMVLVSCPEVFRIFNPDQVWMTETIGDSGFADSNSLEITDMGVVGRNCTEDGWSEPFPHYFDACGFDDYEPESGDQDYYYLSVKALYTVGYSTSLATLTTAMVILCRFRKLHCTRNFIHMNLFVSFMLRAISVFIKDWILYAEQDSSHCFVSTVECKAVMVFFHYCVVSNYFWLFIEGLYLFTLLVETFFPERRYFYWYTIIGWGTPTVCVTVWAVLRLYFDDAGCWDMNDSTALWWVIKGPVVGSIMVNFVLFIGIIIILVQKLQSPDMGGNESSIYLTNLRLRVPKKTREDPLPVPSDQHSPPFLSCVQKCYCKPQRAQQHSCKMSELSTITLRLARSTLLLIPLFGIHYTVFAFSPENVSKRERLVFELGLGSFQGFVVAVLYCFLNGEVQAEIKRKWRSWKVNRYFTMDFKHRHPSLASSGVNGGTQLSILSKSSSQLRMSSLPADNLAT
Description: In order to determine the potency of peptide antagonists at the PAC1 receptor, functional cAMP accumulation assays using LANCE Ultra cAMP assay kit to measure the agonist and antagonist activity of PAC1 peptides were used. SHSY-5Y (human neuroblastoma cell line) and RG-2 (rat glioma cell line) cells endogenously express human and rat PAC1 receptors, respectively. Agonist activity of PAC1 peptides was tested by incubating with SHSY-5Y at 2,000 cells per well or RG-2 at 5,000 cells per well for 15 minutes at room temperature. PAC1 receptor agonist PACAP38 or maxadilan was included as a positive control. The reaction was stopped by adding detection mixture, europium (Eu) chelate-labeled cAMP tracer and cAMP-specific monoclonal antibodies labeled with the ULight™ dye, to all wells followed by a 60-minute incubation at room temperature. The assay plates were then read on an EnVision instrument at an emission wavelength of 665 and 615 nm and data were analyzed using Genedata Screener or GraphPad Prism software. A similar procedure was used in the antagonist assays by using a fixed concentration of PAC1 agonist. The concentrations of agonists were chosen based on their ECK) values at PAC1 receptors in SHSY-5Y or RG-2 cells. SHSY-5Y or RG-2 cells were added into 96-well half-area white plates. Serially diluted PAC1 peptides at ten concentrations were added and incubated for 30 minutes at room temperature. PAC1 agonist at EC80 concentration was then added and further incubated for 15 minutes at room temperature. The reaction was stopped by adding detection mixture to all wells followed by a 60-minute incubation at room temperature. The assay plates were read and analyzed the same way as that of agonist assay. Cells, agonists, and PAC1 peptides were prepared in freshly made assay buffer (F-12, 0.5 mM IBMX, 0.1 or 0.4% BSA (pH 7.4)). Detection mixture was made by mixing a 1/50 dilution of the Eu-cAMP tracer stock solution in cAMP Detection Buffer and a 1/150 dilution of the ULight-anti-cAMP stock solution in cAMP Detection Buffer. Europium (Eu) chelate-labeled cAMP tracer, cAMP-specific monoclonal antibodies labeled with the ULight™ dye, BSA, and detection buffer were provided in LANCE Ultra cAMP Kit from PerkinElmer

Compound | IC50 (human PAC1 receptor) [nM] | IC50 (rat PAC1 receptor) [nM]
CC[C@H](C)[C@H](NC(=O)[C@H](C)NC(=O)[C@H](CCCCN)NC(=O)[C@H](CCCNC(=N)N)NC(=O)[C@H](Cc1ccccc1)NC(=O)[C@H](CCC(N)=O)NC(=O)[C@@H]1CSSC[C@H](NC(C)=O)C(=O)N[C@@H](CC(=O)O)C(=O)N[C@@H](C)C(=O)N[C@@H]([C@@H](C)O)C(=O)N1)C(=O)N[C@@H](CC(=O)O)C(=O)N[C@@H](CC(=O)O)C(=O)N[C@H]1CSSC[C@@H](C(=O)N[C@@H](CCSC)C(=O)N[C@@H](CCCCN)C(=O)N[C@@H](CCC(N)=O)C(=O)N[C@@H](CCCCN)C(=O)N[C@@H](CCCCN)C(=O)N[C@@H](CCCCN)C(=O)N[C@@H](CCC(=O)O)C(=O)N[C@@H](Cc2ccccc2)C(=O)N[C@@H](CCCCN)C(=O)N[C@@H](C)C(=O)NCC(N)=O)NC(=O)C(C)(C)NC(=O)[C@H](CCCCN)NC(=O)[C@H](Cc2ccccc2)NC(=O)[C@H](C(C)C)NC(=O)[C@H](CO)NC(=O)CNC(=O)[C@@H]2CCCN2C(=O)[C@H](C(C)C)NC(=O)[C@H](CC(N)=O)NC(=O)[C@H](CO)NC(=O)[C@H](Cc2c[nH]cn2)NC(=O)[C@H](Cc2c[nH]cn2)NC(=O)[C@H](C)NC(=O)[C@H](CCC(N)=O)NC(=O)[C@H](CCCCN)NC(=O)[C@H](CCC(N)=O)NC1=O [SEQ ID NO 253] | 0.01 to 1 | 0.01 to 1
CDATCQFRKAIDDCYWIAMHSNVPGSVWKACMKQKKKEFKAG-NH2 (disulfide 1-5, 14-31) [compound 147] | 0.01 to 1 | 0.01 to 1
CDATCQFRKAIDDCAKQAHHSNVPGSVFKACMKQKKKEFKAGH (disulfide 1-5, 14-31) [compound 57] | 0.01 to 1 | 0.01 to 1
CDATCQFRKAIDDCVWFAWHSNVPGSVFKACMKQKKKEFKAG-NH2 (disulfide 1-5, 14-31) [compound 148] | 0.01 to 1 | 0.01 to 1
GCDATCQFRKAIDDCAKQAHHSNVPGSVFKACMKQKKKEFKAGY (disulfide 2-6, 15-32) [SEQ ID NO 58] | 0.01 to 1 | 0.01 to 1
CDATCQFRKAIDDCYYRSWHSNVPGSVFKACMKQKKKEFKAG-NH2 (disulfide 1-5, 14-31) [compound 149] | 0.01 to 1 | 0.01 to 1
CDATCQFRKAIDDCDRQAHHSNVPGSVFKACMKQKKKEWKAG (disulfide 1-5, 14-31) [compound 81] | 1 to 100 | 0.01 to 1
CDATCQFRKAIDDCQKQAHHSNVPGSVFKACMKQKKKEFKAGW (disulfide 1-5, 14-31) [compound 145] | 0.01 to 1 | 0.01 to 1
CDATCQFRKAIDDCQKQAHHSNVPGSVFKVCMKQKKKEFKAG-NH2 (disulfide 1-5, 14-31) [compound 211] | 1 to 100 | 0.01 to 1
CDATCQFRKAIDDCYYRSHSNVPGSVFKACMKQKKKEFKAG-NH2 (disulfide 1-5, 14-30) [compound 42] | 0.01 to 1 | 0.01 to 1
CDATCQFRKAIDDCVRQAHHSNVPGSVFKACMKQKKKEWKAGY (disulfide 1-5, 14-31) [SEQ ID NO 86] | 0.01 to 1 | 0.01 to 1
CDATCQFRKAIDDCLWYARHSNVPGSVFKACMKQKKKEFKAG-NH2 (disulfide 1-5, 14-31) [compound 120] | 0.01 to 1 | 0.01 to 1
CDATCQFRKAIDDCQKQAHHSNVGNSVFKECMKQKKKEFKAGK (disulfide 1-5, 14-31) [compound 398] | 1 to 100 | 
CC[C@H](C)[C@H](NC(=O)[C@H](C)NC(=O)[C@H](CCCCN)NC(=O)[C@H](CCCNC(=N)N)NC(=O)[C@H](Cc1ccccc1)NC(=O)[C@H](CCC(N)=O)NC(=O)[C@@H]1CSSC[C@H](N)C(=O)N[C@@H](CC(=O)O)C(=O)N[C@@H](C)C(=O)N[C@@H]([C@@H](C)O)C(=O)N1)C(=O)N[C@@H](CC(=O)O)C(=O)N[C@@H](CC(=O)O)C(=O)N[C@H]1CSSC[C@@H](C(=O)N[C@@H](CCSC)C(=O)N[C@@H](CCCCN)C(=O)N[C@@H](CCC(N)=O)C(=O)N[C@@H](CCCCN)C(N)=O)NC(=O)[C@H](CCC(=O)O)NC(=O)[C@H](CCCCN)NC(=O)[C@H](Cc2ccccc2)NC(=O)[C@H](C(C)C)NC(=O)[C@H](CO)NC(=O)[C@H](CC(N)=O)NC(=O)CNC(=O)[C@@H]2CCCN2C(=O)[C@H](C(C)C)NC(=O)[C@H](CC(N)=O)NC(=O)[C@H](CO)NC(=O)[C@H](Cc2c[nH]cn2)NC(=O)[C@H](Cc2c[nH]cn2)NC(=O)[C@H](C)NC(=O)[C@H](CCC(N)=O)NC(=O)[C@H](CCCCN)NC(=O)[C@H](CCC(N)=O)NC1=O [compound 413] | 1 to 100 | 
CDATCQFRKAIDDCQKQAHHSNVPNSVFKECMKQKKKEFKAGK (disulfide 1-5, 14-31) [compound 365] | 1 to 100 | 
CDATCQFRKAIDDCQKQAHHSNVPGSVFKECMKQKKKEFKAGK (disulfide 1-5, 14-31) [compound 364] | 1 to 100 | 
CDATCQFRKAIDDCQKQAHHSNVSVFKECMKQKKKEFKAGK (disulfide 1-5, 14-29) [compound 397] | 1 to 100 | 
CDATCQFRKAIDDCQKQAHHSNVPGNSVKECMKQKKKEFKAGK (disulfide 1-5, 14-31) [compound 362] | > 100 | 
CDATCQFRKAIDDCKQQAHHSNVPGNSVFEKCMKQKKKEFKAGK (disulfide 1-5, 14-32) [compound 346] | > 100 | 
CDATCQFRKAIDDCQKQAHHSNVPGNSFKECMKQKKKEFKAGK (disulfide 1-5, 14-31) [compound 363] | 1 to 100 | 
CC[C@H](C)[C@H](NC(=O)[C@H](C)NC(=O)[C@H](CCCCN)NC(=O)[C@H](CCCNC(=N)N)NC(=O)[C@H](Cc1ccccc1)NC(=O)[C@H](CCC(N)=O)NC(=O)[C@@H]1CSSC[C@H](N)C(=O)N[C@@H](CC(=O)O)C(=O)N[C@@H](C)C(=O)N[C@@H]([C@@H](C)O)C(=O)N1)C(=O)N[C@@H](CC(=O)O)C(=O)N[C@@H](CC(=O)O)C(=O)N[C@H]1CSSC[C@@H](C(=O)N[C@@H](CCSC)C(=O)N[C@@H](CCCCN)C(=O)N[C@@H](CCC(N)=O)C(=O)N[C@@H](CCCCN)C(=O)N[C@@H](CCCCN)C(=O)N[C@@H](CCCCN)C(=O)N[C@@H](CCC(=O)O)C(=O)N[C@@H](Cc2ccccc2)C(=O)N[C@@H](CCCCN)C(=O)N[C@@H](C)C(=O)NCC(=O)N[C@@H](CCCCN)C(=O)O)NC(=O)[C@H](CCC(=O)O)NC(=O)[C@H](CCCCN)NC(=O)[C@H](Cc2ccccc2)NC(=O)[C@H](C(C)C)NC(=O)[C@H](CO)NC(=O)[C@H](CC(N)=O)NC(=O)[C@H](CO)NC(=O)[C@H](Cc2c[nH]cn2)NC(=O)[C@H](Cc2c[nH]cn2)NC(=O)[C@H](C)NC(=O)[C@H](CCC(N)=O)NC(=O)[C@H](CCCCN)NC(=O)[C@H](CCC(N)=O)NC1=O [compound 396] (H-CDATCQFRKAIDDCQKQAHHSNSVFKECMKQKKKEFKAGK-OH; disulfide 1-5, 14-28) | 1 to 100 | 
CC[C@H](C)[C@H](NC(=O)[C@H](C)NC(=O)[C@H](CCCCN)NC(=O)[C@H](CCCNC(=N)N)NC(=O)[C@H](Cc1ccccc1)NC(=O)[C@H](CCC(N)=O)NC(=O)[C@@H]1CSSC[C@H](N)C(=O)N[C@@H](CC(=O)O)C(=O)N[C@@H](C)C(=O)N[C@@H]([C@@H](C)O)C(=O)N1)C(=O)N[C@@H](CC(=O)O)C(=O)N[C@@H](CC(=O)O)C(=O)N[C@H]1CSSC[C@@H](C(=O)N[C@@H](CCSC)C(=O)N[C@@H](CCCCN)C(=O)N[C@@H](CCC(N)=O)C(=O)N[C@@H](CCCCN)C(=O)N[C@@H](CCCCN)C(=O)N[C@@H](CCCCN)C(=O)N[C@@H](CCC(=O)O)C(=O)N[C@@H](Cc2c[nH]c3ccccc23)C(=O)N[C@@H](CCCCN)C(=O)N[C@@H](C)C(=O)NCC(=O)N[C@@H](Cc2c[nH]cn2)C(=O)O)NC(=O)[C@H](C)NC(=O)[C@H](CCCCN)NC(=O)[C@H](Cc2ccccc2)NC(=O)[C@H](Cc2ccc(O)cc2)NC(=O)[C@H](C)NC(=O)[C@H](CCC(N)=O)NC(=O)[C@H](CCCNC(=N)N)NC(=O)[C@H](C)NC1=O [compound 448] (H-CDATCQFRKAIDDCARQAYFKACMKQKKKEWKAGH-OH; disulfide 1-5, 14-23) |  | < 0.01
